Measurements as given in patent US20110294861A1, “METHOD OF TREATMENT OF HEREDITARY HEMOCHROMATOSIS” (NOVARTIS AG, priority 2006, published 2011).

How the values were obtained:
[1] = subcutaneous, 3 patients with HH; compared with weekly phlebotomy, e.g. 500 ml; cited from earlier work
[2] = in vivo; cited from earlier work
[3] = Exposure of Compound I in mice compared with human studies; type: in vivo; details: mice versus human studies
HJV−/− mice = assay: Iron overload in a murine model of juvenile hemochromatosis (organ iron by ICP-OES); type: in vivo
Procedure: Compound I, a novel tridentate oral iron chelator, is effective in the treatment of patients with transfusional iron overload and it has not been investigated in primary iron overload. We sought to examine spontaneous iron loading and the effect of Compound I upon the removal of iron in HJV−/− mice with iron overload.
Methods: Inductively-Coupled Plasma Optical Emission Spectrometry (ICP-OES, measurement of elemental iron) determinations in liver, heart, spleen and pancreas were performed at week 8 (study start), 14, 20 and 28 in HJV−/− and wild type (wt) mice (n=6-8), subsequent to MRI measurements in heart and liver. Starting at week 20 three groups of HJV−/− animals received daily 0 (vehicle), 30 or 100 mg/kg Compound I, control wt-mice remained untreated. Iron loading was observed up to 28 weeks (including vehicle group) and the effects of Compound I were assessed by comparing the 28-week groups. MRI R2* measurements were performed using a 4.7T MR imager. For the myocardial and hepatic R2* assessments single slice, ECG gated gradient echo images and single slice transversal gradient echo images were acquired, respectively.

[4] = Plasma half life within the human body; type: in vivo
[5] = 100 mg/kg daily, week 20 to 28, HJV−/− mice, ICP-OES
[6] = hemojuvelin knock out mouse, within 8 weeks of treatment (conclusion)

| Compound | effectiveness of treatment of iron overload [1] | half life within the bloodstream [2] | lower exposure in mice [3] | effects on organ iron load (HJV−/− mice; 30 mg/kg daily, HJV−/− mice) | effects on organ iron load in liver and heart (HJV−/− mice; 100 mg/kg daily, HJV−/− mice) | pancreas iron (HJV−/− mice; 100 mg/kg daily, HJV−/− mice) | heart iron reduced as compared to the (HJV−/−)-vehicle treated group (HJV−/− mice; [5]) [%] | liver iron reduced as compared to the (HJV−/−)-vehicle treated group (HJV−/− mice; [5]) [%] | liver and heart iron (HJV−/− mice; [6]) | pancreatic iron load (HJV−/− mice; [6]) | half-life [4] [h] |
| --- | --- | --- | --- | --- | --- | --- | --- | --- | --- | --- | --- |
| CC(=O)N(O)CCCCCNC(=O)CCC(=O)N(O)CCCCCNC(=O)CCC(=O)N(O)CCCCCN [DFO, desferrioxamine] | as effective as weekly phlebotomy | short | – | – | – | – | – | – | – | – | – |
| O=C(O)c1ccc(-n2nc(-c3ccccc3O)nc2-c2ccccc2O)cc1 [Compound I, 4-[3,5-bis(2-hydroxyphenyl)-[1,2,4]triazol-1-yl]benzoic acid] | – | – | 6-9 times | modest | quite pronounced | clear trend to lower levels | 41 | 63 | significantly reduced | trend to improvement | 8 to 16 |
